From US12083159B2, “Antibacterial compositions, methods of making and use thereof” (MOREHOUSE SCHOOL OF MEDICINE, priority 2011, dated 2024)
Where no end group is shown, it is not given here.

Legend:
Jurkat = assay type: cell-based; conditions: Jurkat cultures, 12 days
Experimental: Jurkat cultures seeded at low density were grown in the presence of the SMRwt or the SMRmut peptide. A small but consistent aliquot was taken from each culture daily over a period of 12 days. The cells in the aliquot were counted and the cells/ml in the culture calculated to determine culture growth. The data are shown with time on the x-axis and cell number on the y-axis.
Neither peptide cause cell death (data not shown). Using immunoprecipitation with the SMRwt peptide as bait to screen for cellular factors interacting with the SMR domain, a cellular protein Mortalin was co-immunoprecipitated with the SMRwt peptide (FIG. 3). Mortalin, also known as Glucose-regulated protein 75 (GRP75) and Peptide-binding protein 74, is a 679 amino acid long, uninducible member of the heat shock protein 70 family. It has a high degree of identity with other members of the Hsp70 family, including Escherichia coli DnaK.

Vibrio cholerae C7258 = experiment: Biofilm formation, crystal violet assay (microtiter plate); assay type: cell-based; conditions: FIG. 12
Experimental: (§1) Biofilm Formation and Measurement Procedures by Crystal Violet Assay: (1) incubate bacteria in agar plate; (2) single colony was transferred to fresh medium and incubated for overnight; (3) cultures were diluted 1:50 into fresh medium and (4) was dispensed into 96 well plate and incubated for overnight; (5) detection of bacteria growth ability, the OD at 600 nm was determined by the SpectraMax M5 Microplate Reader (6) washed by 1× PBS; (7) stained with crystal violet; (8) detection of biofilm, the OD at 570 nm was determined by the SpectraMax M5 Microplate Reader.
(§2) SMR(mut)-CPP (tat) peptide was used as a negative control.
(§3) Bacterial strains evaluated for biofilm formation included (1) the Gram-negative Vibrio cholerae C7258 strain (A. J. Silva et al., J. Bact., 190 (22):7335-7345 (November 2008); J. C. Ayala et al., Genomics data 5, pp. 147-150, (2015)); (2) the Gram-negative Escherichia coli 042 strain (Taxonomy ID: 216592, R. R. Chaudhuri et al, PLOS One, 5(1):e8801 (Jan. 20, 2010), and (3) the Gram-positive Staphylococcus aureus SCO1 strain (ATCC 12228, S. Sarkar et al., PLos One, 10(2):e0117613 (2015). The Vibrio cholerae, Escherichia coli and Staphylococcus aureus strains and plasmids are listed in the references cited in Table 2.
(§4) The Vibrio cholerae, Escherichia coli and Staphylococcus aureus strains were treated with SMRwt-CPP and SMRmut-CPP peptides and screened for inhibition of their biofilm-forming capacity using microtiter plate (MtP) methods (FIGS. 12-14 (crystal violet assays)) and confocal microscopy (FIGS. 15-16 (intensity count on confocal images).

Escherichia coli 042 = experiment: as above; assay type: cell-based; conditions: FIG. 13
Experimental: as §1, §2, §3, §4

[1] = test system: Staphylococcus aureus SCO1; experiment: as above; assay type: cell-based; conditions: FIG. 14
Experimental: as §1, §2, §3, §4

[2] = test system: Staphylococcus aureus SCO1; experiment: Biofilm formation, SYTO9 confocal microscopy, ImageJ; assay type: cell-based; conditions: 24 h static, 18, 36, 72 nM, FIG. 15
Experimental: (§5) Strain SCO1 was grown in LB medium at 37° C. to stationary phase. The cultures were diluted 100 fords in fresh medium and biofilm allowed to develop under static conditions for 24 h in Mat Tek glass bottom culture plates. Biofilm formation was stained with SYTO9 and observed by Leico confocal microscopy and three-dimensional (3D) views of S. aureus and measured using the ImageJ. (A) Confocal images, (B) 3D images, and (C) bar graphs showing the inhibit effect of biofilm formation. Error bars represent the mean±SD of two independent experiments. Asterisks (*) indicate significant differences (p≤0.05) relative to negative control *p<0.01 (18 nM), **p<0.001 (36 nM, 72 nM) in SMR-CPP peptide treatment. Each value represents the mean of three independent experiments. Error bars denote the standard deviation (STDEV).
as §4

V. cholerae C7258 = experiment: as above; assay type: cell-based, Vibrio cholerae; conditions: 24 h static, 18, 36, 72 nM, FIG. 16
Experimental: as §5, with “V. cholerae C7258” for “SCO1”, “30°” for “37°”, “V. cholerae” for “S. aureus”, “vs 18” for “(18 nM), **p<0.001 (36”, “nM, 36 nM and” for “nM,”, “nM SMRwt-CPP” for “nM) in SMR-CPP”
as §4

Row | Sequence | effect on eukaryotic cell growth (Jurkat) | inhibition of biofilm formation (Vibrio cholerae C7258) | inhibition of biofilm formation (Escherichia coli 042) | inhibition of biofilm formation [1] | inhibition of biofilm formation [2] | inhibition of biofilm formation (V. cholerae C7258)
1 | AGFPVAAAGFPVDYKDDDDK [SMRmut, reference compound] | no effect on eukaryotic cell growth |  |  |  |  | 
2 | AGFPVAAAGFPVGRKKRRQRRRPPQ [SMRmut-CPP, reference compound] |  | no significant effect | no significant effect | no significant effect |  | 
3 | VGFPVAAVGFPVDYKDDDDK [SMRwt] | no effect on eukaryotic cell growth |  |  |  |  | 
4 | VGFPVAAVGFPVGRKKRRQRRRPPQ [SMRwt-CPP] |  | dose-response inhibition of biofilm formation | dose-response inhibition of biofilm formation | dose-response inhibition of biofilm formation | dose-response inhibition of biofilm formation | dose-response inhibition of biofilm formation
